We go through 1 molecule from article PMC7187334 (Clinical Pharmacology in Drug Development, 2019).

Data set [1] relates to leukotriene E4 levels in urine. Particulars: healthy volunteers, first-in-human study; 95% CI 0.7-1.0 nM; read-out: IC50, reduction of endogenous leukotriene E4 levels in urine; cited from earlier work.
Data set [2] relates to CYP2C19. Particulars: in vitro; read-out: IC50, CYP2C19 inhibition; cited from earlier work.
Data set [3] concerns the target organic anion‐transporting polypeptide 1B1 (OATP1B1) (Homo sapiens, UniProt Q9Y6L6). The experiment in a line: OATP1B1 transporter inhibition in vitro. Particulars: read-out: IC50, OATP1B1 inhibition, unpublished data.
For data set [4], the system named is leukotriene B4 production in human leukocytes. To be noted: in vitro; cited from earlier work.
Data set [5] has as its target T1, breast cancer resistance protein (BCRP) (Homo sapiens, UniProt Q9UNQ0).
T1 sequence (Q9UNQ0 1-655): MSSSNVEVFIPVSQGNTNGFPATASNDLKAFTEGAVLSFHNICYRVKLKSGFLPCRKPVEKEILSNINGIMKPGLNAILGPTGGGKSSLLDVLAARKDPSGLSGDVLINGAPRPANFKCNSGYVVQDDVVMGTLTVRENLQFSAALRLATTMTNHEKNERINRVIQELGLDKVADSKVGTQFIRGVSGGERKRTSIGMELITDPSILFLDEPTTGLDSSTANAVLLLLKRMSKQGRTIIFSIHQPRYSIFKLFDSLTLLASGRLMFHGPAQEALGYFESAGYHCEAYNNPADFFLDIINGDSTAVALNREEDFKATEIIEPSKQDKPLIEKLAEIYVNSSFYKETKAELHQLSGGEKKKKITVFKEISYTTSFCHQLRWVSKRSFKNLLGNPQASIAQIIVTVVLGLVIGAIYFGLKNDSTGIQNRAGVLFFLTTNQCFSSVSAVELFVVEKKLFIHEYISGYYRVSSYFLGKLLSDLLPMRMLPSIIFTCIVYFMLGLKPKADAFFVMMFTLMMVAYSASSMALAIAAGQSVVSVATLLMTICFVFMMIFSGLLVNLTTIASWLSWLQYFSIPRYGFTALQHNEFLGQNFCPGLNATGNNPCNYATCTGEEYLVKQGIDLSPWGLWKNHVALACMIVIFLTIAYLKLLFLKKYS
Briefly: BCRP transporter inhibition in vitro. The class given is in vitro ADME. Particulars: unpublished data.

Data set [6] deals with CYP3A4. Particulars: in vitro; read-out: IC50, CYP3A4 inhibition; cited from earlier work.
For data set [7], the system named is CYP2C8. Particulars: in vitro; read-out: IC50, CYP2C8 inhibition; cited from earlier work.
Data set [8] has as its system leukotriene B4 production. To be noted: healthy volunteers, first-in-human study; 95% CI 4.8-5.8 nM; read-out: IC50, inhibition of leukotriene B4 production, whole-blood ex vivo stimulation assay; cited from earlier work.
The conditions of data set [9]: healthy volunteers, cited from earlier work.
Data set [10] has as its system healthy volunteers. The experiment in a line: Phase 1 crossover study: safety and tolerability (adverse events). In kind it is in vivo, human. Here is the method: Each participant received 5 single‐dose oral study treatments (A‐E), with a minimum washout period of 7 days between each treatment period.
The safety set included all participants who received treatment in the study and for whom any postdose safety data were available. Safety was assessed throughout the study by monitoring adverse events, vital signs (systolic and diastolic blood pressure, pulse rate, and body temperature), and electrocardiographic parameters and by conducting physical examinations and laboratory assessments (hematology, blood chemistry, and urinalysis).

Data set [11] concerns the target P‐glycoprotein (Homo sapiens, UniProt P08183). Briefly: P-glycoprotein inhibition in vitro. In kind it is in vitro ADME.

Each structure is given as a SMILES string. pIC50: −log10 of the molar value. Bounds are passed on as bounds.

Chain of P‐glycoprotein (P08183 whole entry): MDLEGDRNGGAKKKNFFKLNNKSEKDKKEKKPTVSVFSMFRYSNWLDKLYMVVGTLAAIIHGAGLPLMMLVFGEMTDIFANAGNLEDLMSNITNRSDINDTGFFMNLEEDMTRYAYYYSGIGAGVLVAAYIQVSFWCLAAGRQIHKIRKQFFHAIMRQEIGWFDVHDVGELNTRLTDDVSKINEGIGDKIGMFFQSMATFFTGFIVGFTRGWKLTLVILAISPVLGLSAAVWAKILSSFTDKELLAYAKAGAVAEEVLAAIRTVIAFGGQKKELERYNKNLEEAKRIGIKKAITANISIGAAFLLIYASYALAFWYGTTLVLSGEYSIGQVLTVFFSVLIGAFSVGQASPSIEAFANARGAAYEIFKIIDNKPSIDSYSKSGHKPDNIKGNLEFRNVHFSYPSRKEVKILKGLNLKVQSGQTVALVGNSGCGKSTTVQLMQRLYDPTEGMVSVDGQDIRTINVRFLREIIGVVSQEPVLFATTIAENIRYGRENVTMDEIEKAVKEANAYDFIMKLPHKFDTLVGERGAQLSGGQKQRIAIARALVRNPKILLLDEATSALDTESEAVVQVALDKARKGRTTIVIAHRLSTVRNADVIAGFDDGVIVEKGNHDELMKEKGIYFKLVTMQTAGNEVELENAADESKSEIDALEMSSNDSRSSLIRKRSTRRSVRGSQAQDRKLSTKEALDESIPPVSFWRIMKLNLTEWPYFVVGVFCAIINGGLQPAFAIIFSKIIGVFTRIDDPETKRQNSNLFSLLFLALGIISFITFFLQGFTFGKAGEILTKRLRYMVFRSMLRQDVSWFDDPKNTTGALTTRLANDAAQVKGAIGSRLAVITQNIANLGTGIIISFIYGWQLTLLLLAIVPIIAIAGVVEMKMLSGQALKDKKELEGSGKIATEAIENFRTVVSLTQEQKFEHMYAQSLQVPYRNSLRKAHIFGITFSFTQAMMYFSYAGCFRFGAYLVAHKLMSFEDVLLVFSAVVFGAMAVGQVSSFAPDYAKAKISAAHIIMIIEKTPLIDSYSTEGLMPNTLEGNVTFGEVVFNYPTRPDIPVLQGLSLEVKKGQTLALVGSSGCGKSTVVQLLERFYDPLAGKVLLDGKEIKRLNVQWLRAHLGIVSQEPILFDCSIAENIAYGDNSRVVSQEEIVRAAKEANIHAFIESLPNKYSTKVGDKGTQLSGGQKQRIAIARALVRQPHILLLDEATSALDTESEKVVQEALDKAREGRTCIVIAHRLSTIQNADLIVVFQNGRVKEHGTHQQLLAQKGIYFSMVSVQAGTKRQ
Chain of organic anion‐transporting polypeptide 1B1 (OATP1B1) (Q9Y6L6 whole entry): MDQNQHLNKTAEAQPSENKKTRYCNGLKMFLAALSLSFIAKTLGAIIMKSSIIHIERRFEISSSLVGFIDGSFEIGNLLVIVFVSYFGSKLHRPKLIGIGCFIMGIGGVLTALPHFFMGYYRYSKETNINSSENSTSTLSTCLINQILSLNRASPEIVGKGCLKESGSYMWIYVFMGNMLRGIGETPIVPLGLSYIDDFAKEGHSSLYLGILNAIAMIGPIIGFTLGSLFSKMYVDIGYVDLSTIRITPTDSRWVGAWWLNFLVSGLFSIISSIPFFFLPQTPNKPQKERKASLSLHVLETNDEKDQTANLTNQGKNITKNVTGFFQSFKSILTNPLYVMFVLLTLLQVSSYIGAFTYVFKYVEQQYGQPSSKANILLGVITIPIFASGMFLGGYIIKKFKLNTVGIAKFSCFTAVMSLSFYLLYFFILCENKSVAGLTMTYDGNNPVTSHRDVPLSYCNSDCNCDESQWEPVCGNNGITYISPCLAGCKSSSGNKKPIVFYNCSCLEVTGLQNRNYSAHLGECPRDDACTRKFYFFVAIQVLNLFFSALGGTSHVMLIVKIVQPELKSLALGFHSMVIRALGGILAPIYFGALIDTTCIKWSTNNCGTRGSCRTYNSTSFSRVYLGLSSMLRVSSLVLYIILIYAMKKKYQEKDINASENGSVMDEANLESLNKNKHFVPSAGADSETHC

One may read the pIC50 as the negative decadic logarithm of the IC50, by convention in mol/L. On to `Cc1cc(-c2ccc(C(=O)[C@@H]3CCCC[C@H]3C(=O)Nc3cnn4c3C(=O)NCC4)cc2)n[nH]1` [AZD5718], for which the pIC50 in [1] is 9.10. For the same molecule, in [2], the negative logarithm of the IC50 (pIC50) is under 4.70. In data set [3], the negative-log IC50 (pIC50) is 5.64. In [4], the negative-log IC50 (pIC50) is 7.41. In [5], this molecule had a negative logarithm of the IC50 (pIC50) of 4.70. In addition, in data set [6], the negative logarithm of the IC50 (pIC50) was under 4.70. The pIC50 in [7] is under 4.70. Besides, in data set [8], the pIC50 was 8.28. Also, the “time to steady-state levels” value in [9] (oral suspension, multiple doses) is listed as “about 3 days”. Further, in data set [9] (single oral doses 25-1200 mg and multiple doses 60-600 mg), the tolerability result is “well tolerated, with no identified safety concerns”. In addition, the “Deaths, serious adverse events, adverse events leading to discontinuation” value in data set [10] (all 5 treatment periods, 12 healthy men) is reported as “No deaths, serious adverse events, or adverse events leading to discontinuation occurred”. Further, in data set [10] (human, in vivo), the “Participants with any AE” value was 6 (50.0) n (%), the “Participants with dry skin” value was 1 (8.3) n (%), the Participants with headache is reported as 2 (16.7) n (%) and the “Participants with hot flush” value is 1 (8.3) n (%). In addition, in data set [10] (human, in vivo), the “Participants with influenza-like illness” value is 1 (8.3) n (%), the “Participants with musculoskeletal pain” value is 1 (8.3) n (%), the “Participants with nasal congestion” value is given as 1 (8.3) n (%) and the Participants with nasopharyngitis was 1 (8.3) n (%). Further, in [10] (human, in vivo), the Participants with nausea is on record as 1 (8.3) n (%), the “Participants with oropharyngeal pain” value was 1 (8.3) n (%) and the “Participants with poor-quality sleep” value is recorded as 1 (8.3) n (%). In data set [11], this molecule gave a pIC50 of under 4.00.
